For one experiment, the system named is wild type appressoria. Type of experiment: cell-based, Magnaporthe grisea.
The subject of the next experiment is ABC3 promoter. Type of experiment: cell-based, Magnaporthe grisea.
Experiment [1] concerns Magnaporthe vegetative mycelia, wild type Guy11. Put plainly: microbe, parasite or virus in culture. Type of experiment: cell-based, Magnaporthe grisea. The note with it: for MIC: Pyricularia oryzae, read-out: Minimum Inhibitory Concentration (MIC), Guy11.
The subject of the next experiment is wild type conidia. Type of experiment: cell-based, Magnaporthe grisea.
Another experiment has as its system abc3Δ conidia. Type of experiment: cell-based, Magnaporthe grisea.

≈ marks a conversion by molar mass, not a printed value.

`OO` [hydrogen peroxide]: in the experiment on wild type appressoria, the “appressoria able to breach the host surface” value is 36±2.8% and the “peroxide level that blocked germ tube emergence” value is “exceeding 5 mM”. For the same compound, in the experiment on ABC3 promoter, the “ABC3 promoter driven destabilized-GFP fluorescence versus untreated control” value is listed as “four fold higher”. For the same compound, in the experiment with wild type Guy11 strain, the “growth under oxidative stress” value is reported as “unaffected”.

For `CC(C)[C@@H]1NC(=O)[C@H](C)OC(=O)[C@@H](C(C)C)NC(=O)[C@@H](C(C)C)OC(=O)[C@H](C(C)C)NC(=O)[C@H](C)OC(=O)[C@@H](C(C)C)NC(=O)[C@@H](C(C)C)OC(=O)[C@H](C(C)C)NC(=O)[C@H](C)OC(=O)[C@@H](C(C)C)NC(=O)[C@@H](C(C)C)OC1=O` [Valinomycin], in experiment [1], the MIC was found to be 20 µg/mL (≈ 18 µM). In the experiment on wild type conidia, the “frequency of appressoria formation” value amounted to 61±2% and the germ tube growth result was “could withstand elevated concentration”. In the experiment with abc3Δ conidia, the “effect on conidia (germ tube emergence)” value was “complete blockage of conidial germ tube emergence” and the germ tube growth entry was “inhibited”.

`[Cl-].[K+]` [KCl, potassium chloride]: in the experiment with wild type conidia, the “reversal of defects associated with Valinomycin action” value is listed as “failed to reverse”.

With Gramicidin D, in experiment [1], the “Minimum Inhibitory Concentration (MIC), Guy11” value was found to be 180 µg/mL.

On to `CC1=CC(=O)c2ccccc2C1=O` [Menadione], for which, in the experiment on wild type appressoria, the “effect on host penetration compared to treatment with peroxide” value was “slightly reduced effect”.

Turning to `CCC(C)n1ncn(-c2ccc(N3CCN(c4ccc(OCC5COC(Cn6cncn6)(c6ccc(Cl)cc6Cl)O5)cc4)CC3)cc2)c1=O` (stereo not drawn) [Itraconazole], in experiment [1], the MIC was found to be 2000 µg/mL (≈ 2830 µM).

For `CCCCNC(=O)n1c(NC(=O)OC)nc2ccccc21` [Benomyl], the MIC in experiment [1] was 2 µg/mL (≈ 6.89 µM).

Consider `CCC(=C/[C@H](C)C/C=C/C(C)=C/[C@@H](C)C(=O)[C@@H](C)[C@H](O)[C@@H](C)C/C(C)=C/C(=O)O)/C=C/[C@@H]1OC(=O)C=C[C@@H]1C` [Leptomycin B], for which, in experiment [1], the “Minimum Inhibitory Concentration (MIC), Guy11” value worked out at 0.0075 µg/mL.

`COc1ccc(CCN(C)CCCC(C#N)(c2ccc(OC)c(OC)c2)C(C)C)cc1OC` (stereo not drawn) [Verapamil]: in the experiment with wild type appressoria, the “decrease in penetration peg formation” value was not above 74% and the “effect on germ tube emergence or growth” value is “without affecting”.

Turning to Actinomycin D, the “Minimum Inhibitory Concentration (MIC), Guy11” value in experiment [1] turned out to be 15 µg/mL.

In the case of `C[C@H]1CCC/C=C/[C@@H]2C[C@H](O)C[C@H]2[C@H](O)/C=C/C(=O)O1` [Brefeldin A], the “Minimum Inhibitory Concentration (MIC), Guy11” value in experiment [1] is 40 µg/mL.

With `OC(Cn1cncn1)(Cn1cncn1)c1ccc(F)cc1F` [Fluconazole], the MIC in experiment [1] is 2500 µg/mL (≈ 8160 µM).

As for `C[n+]1ccc(-c2cc[n+](C)cc2)cc1` [paraquat], the “effect on host penetration compared to treatment with peroxide” value in the experiment with wild type appressoria is “slightly reduced effect”.
